How the values were obtained:
Assay in all cases: biochemical
Design in all cases: KinomeScan competition binding panel (DiscoveRx), percent of control at 1 uM
Settings in all cases: read-out: Percent Control
PFPK5(P.falciparum) = molecular target: T1, PFPK5(P.falciparum) (Plasmodium falciparum, UniProt P61075)
T1 construct: gene CRK2

MAP4K2 = MAP4K2 (Homo sapiens, UniProt Q12851)
Text: (§1) In order to further confirm the binding mode, we then tested the compounds in the BTK wild-type (wt) and BTK C481S mutant with immunoblotting by looking at the BTK Y551 auto-phosphorylation. […] In addition, a covalent bond was preferred to form between the […] acrylamide and Cys-481 near the hinge binding area, which further confirmed its irreversible binding mode (Fig. 1d). We next investigated CHMFL-BTK-11′s selectivity profile in 456 kinases/mutants with KinomeScan^TM technology.

PDGFRB = PDGFRB (Homo sapiens, UniProt P09619)
Text: as §1

SLK = SLK (Homo sapiens, UniProt Q9H2G2)
Text: as §1

RIOK1 = RIOK1 (Homo sapiens, UniProt Q9BRS2)
Text: as §1

[1] = molecular target: T2, RSK2(Kin.Dom.2-C-terminal) (Homo sapiens, UniProt P51812)
T2 construct: gene RPS6KA3; Kin.Dom.2-C-terminal
Text: as §1

[2] = molecular target: T3, JAK1(JH1domain-catalytic) (Homo sapiens, UniProt P23458)
T3 construct: JH1domain-catalytic
Text: as §1

LOK = molecular target: T4, LOK (Homo sapiens, UniProt O94804)
T4 construct: gene STK10
Text: as §1

CDK11 = molecular target: T5, CDK11 (Homo sapiens, UniProt Q9BWU1)
T5 construct: gene CDK19
Text: as §1

PRKCI = PRKCI (Homo sapiens, UniProt P41743)
Text: as §1

BMX = BMX (Homo sapiens, UniProt P51813)
Text: as §1

ABL2 = ABL2 (Homo sapiens, UniProt P42684)
Text: as §1

MAPKAPK5 = MAPKAPK5 (Homo sapiens, UniProt Q8IW41)
Text: as §1

[3] = molecular target: T6, ABL1(Y253F)-phosphorylated (Homo sapiens, UniProt P00519, Y253F)
T6 construct: phosphorylated
Text: as §1

SNRK = SNRK (Homo sapiens, UniProt Q9NRH2)
Text: as §1

[4] = molecular target: T7, JAK3(JH1domain-catalytic) (Homo sapiens, UniProt P52333)
T7 construct: JH1domain-catalytic
Text: as §1

p38-beta = molecular target: T8, p38-beta (Homo sapiens, UniProt Q15759)
T8 construct: gene MAPK11
Text: as §1

ANKK1 = ANKK1 (Homo sapiens, UniProt Q8NFD2)
Text: as §1

CSF1R-autoinhibited = CSF1R-autoinhibited (Homo sapiens, UniProt P07333)
Text: as §1

DDR1 = DDR1 (Homo sapiens, UniProt Q08345)
Text: as §1

PAK6 = PAK6 (Homo sapiens, UniProt Q9NQU5)
Text: as §1

MAP4K4 = MAP4K4 (Homo sapiens, UniProt O95819)
Text: as §1

PIM2 = PIM2 (Homo sapiens, UniProt Q9P1W9)
Text: as §1

INSR = INSR (Homo sapiens, UniProt P06213)
Text: as §1

FES = FES (Homo sapiens, UniProt P07332)
Text: as §1

T5 sequence (Q9BWU1 whole entry): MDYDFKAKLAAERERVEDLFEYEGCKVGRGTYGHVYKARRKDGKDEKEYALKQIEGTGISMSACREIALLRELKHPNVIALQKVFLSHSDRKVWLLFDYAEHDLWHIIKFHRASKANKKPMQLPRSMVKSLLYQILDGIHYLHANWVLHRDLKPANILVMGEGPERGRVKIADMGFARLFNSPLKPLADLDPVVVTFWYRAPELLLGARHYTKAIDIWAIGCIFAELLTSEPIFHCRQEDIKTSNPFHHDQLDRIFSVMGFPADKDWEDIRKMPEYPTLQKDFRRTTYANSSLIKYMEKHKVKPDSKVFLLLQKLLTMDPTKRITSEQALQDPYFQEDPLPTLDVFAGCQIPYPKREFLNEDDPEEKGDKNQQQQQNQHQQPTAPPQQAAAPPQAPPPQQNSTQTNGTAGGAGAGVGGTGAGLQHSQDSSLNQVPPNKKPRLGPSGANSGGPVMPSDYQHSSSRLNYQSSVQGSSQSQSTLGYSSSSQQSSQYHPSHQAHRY
Sequence of MAP4K2 (Q12851 whole entry): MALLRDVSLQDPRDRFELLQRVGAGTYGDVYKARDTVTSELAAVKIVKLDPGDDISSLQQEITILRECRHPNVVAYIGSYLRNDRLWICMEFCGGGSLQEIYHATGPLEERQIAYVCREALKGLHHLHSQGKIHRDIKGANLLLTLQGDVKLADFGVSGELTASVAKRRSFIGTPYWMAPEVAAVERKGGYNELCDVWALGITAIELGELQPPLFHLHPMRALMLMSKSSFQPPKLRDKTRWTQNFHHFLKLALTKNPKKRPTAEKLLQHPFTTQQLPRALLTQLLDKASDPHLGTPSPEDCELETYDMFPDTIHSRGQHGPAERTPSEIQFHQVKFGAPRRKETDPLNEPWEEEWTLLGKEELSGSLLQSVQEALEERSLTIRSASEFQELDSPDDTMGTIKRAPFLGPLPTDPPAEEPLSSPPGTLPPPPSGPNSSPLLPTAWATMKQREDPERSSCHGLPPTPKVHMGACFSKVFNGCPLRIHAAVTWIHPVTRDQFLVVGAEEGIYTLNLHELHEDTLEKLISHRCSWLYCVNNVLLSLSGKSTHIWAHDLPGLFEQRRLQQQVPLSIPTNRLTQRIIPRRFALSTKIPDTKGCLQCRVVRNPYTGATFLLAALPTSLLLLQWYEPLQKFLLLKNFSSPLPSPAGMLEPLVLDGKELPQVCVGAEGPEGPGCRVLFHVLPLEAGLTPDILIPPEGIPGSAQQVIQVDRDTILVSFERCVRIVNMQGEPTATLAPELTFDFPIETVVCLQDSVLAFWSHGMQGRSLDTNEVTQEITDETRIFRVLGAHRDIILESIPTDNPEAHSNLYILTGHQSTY
Sequence of PAK6 (Q9NQU5 whole entry): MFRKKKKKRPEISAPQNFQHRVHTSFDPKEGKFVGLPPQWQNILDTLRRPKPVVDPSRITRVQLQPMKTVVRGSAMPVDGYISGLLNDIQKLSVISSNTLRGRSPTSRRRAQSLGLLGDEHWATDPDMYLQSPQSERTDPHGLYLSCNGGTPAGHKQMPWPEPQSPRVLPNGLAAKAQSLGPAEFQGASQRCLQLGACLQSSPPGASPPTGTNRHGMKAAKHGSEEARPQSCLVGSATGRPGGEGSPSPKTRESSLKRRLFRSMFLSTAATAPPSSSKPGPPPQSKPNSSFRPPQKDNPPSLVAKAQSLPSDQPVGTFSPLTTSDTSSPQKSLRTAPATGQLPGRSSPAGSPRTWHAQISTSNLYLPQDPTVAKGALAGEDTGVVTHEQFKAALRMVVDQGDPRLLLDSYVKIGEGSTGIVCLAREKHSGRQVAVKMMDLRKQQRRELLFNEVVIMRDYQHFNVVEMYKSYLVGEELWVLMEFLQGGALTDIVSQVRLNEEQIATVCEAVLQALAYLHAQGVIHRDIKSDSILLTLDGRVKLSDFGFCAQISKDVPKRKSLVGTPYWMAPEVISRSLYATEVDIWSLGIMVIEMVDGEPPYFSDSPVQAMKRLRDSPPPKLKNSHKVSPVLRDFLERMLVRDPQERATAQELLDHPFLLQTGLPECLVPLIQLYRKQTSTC
Sequence of RIOK1 (Q9BRS2 whole entry): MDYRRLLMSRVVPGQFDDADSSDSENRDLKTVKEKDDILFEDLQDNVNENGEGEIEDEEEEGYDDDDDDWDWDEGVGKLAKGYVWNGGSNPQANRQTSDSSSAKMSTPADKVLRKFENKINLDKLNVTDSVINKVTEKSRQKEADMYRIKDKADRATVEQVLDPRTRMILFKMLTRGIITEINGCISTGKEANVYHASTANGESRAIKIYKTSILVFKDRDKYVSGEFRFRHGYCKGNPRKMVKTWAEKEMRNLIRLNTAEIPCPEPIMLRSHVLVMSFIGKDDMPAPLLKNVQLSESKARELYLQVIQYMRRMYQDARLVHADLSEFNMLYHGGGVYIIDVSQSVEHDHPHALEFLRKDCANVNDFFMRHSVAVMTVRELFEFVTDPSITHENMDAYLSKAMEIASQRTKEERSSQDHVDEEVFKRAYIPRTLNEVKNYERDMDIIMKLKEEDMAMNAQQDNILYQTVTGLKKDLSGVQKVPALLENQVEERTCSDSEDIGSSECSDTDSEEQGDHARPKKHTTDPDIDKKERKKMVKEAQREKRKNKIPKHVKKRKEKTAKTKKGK
Sequence of MAP4K4 (O95819 whole entry): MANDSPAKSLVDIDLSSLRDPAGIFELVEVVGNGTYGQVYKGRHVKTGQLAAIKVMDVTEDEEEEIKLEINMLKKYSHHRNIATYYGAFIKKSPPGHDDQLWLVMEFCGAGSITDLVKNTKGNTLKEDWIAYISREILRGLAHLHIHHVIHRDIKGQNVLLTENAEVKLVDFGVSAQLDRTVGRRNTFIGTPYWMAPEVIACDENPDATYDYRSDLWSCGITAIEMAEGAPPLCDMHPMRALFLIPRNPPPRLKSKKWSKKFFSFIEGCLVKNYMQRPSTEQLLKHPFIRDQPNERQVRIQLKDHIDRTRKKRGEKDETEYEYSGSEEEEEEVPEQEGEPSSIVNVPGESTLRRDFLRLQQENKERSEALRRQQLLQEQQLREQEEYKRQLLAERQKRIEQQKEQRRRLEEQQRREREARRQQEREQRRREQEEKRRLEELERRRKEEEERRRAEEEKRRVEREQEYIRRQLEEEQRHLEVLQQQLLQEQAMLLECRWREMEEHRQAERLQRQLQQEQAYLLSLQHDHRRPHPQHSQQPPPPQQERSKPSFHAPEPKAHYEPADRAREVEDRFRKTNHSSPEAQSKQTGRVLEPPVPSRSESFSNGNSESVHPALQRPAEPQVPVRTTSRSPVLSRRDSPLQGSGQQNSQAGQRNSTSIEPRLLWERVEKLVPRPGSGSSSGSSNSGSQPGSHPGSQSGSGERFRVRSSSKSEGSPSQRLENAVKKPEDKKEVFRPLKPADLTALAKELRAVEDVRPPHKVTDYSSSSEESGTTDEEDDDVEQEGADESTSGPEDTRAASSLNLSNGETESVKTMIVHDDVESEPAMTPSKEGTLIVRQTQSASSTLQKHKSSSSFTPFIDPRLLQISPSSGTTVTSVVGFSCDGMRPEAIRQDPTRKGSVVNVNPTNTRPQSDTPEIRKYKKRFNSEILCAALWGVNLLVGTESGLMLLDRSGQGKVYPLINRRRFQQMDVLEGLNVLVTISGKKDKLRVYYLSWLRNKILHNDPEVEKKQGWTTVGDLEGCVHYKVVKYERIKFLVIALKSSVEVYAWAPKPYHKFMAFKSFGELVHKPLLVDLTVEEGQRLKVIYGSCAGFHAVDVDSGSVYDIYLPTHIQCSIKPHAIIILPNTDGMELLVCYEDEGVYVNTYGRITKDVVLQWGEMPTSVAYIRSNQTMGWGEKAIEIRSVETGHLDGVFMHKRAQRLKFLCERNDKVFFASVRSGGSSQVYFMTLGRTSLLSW
T2 sequence (P51812 whole entry): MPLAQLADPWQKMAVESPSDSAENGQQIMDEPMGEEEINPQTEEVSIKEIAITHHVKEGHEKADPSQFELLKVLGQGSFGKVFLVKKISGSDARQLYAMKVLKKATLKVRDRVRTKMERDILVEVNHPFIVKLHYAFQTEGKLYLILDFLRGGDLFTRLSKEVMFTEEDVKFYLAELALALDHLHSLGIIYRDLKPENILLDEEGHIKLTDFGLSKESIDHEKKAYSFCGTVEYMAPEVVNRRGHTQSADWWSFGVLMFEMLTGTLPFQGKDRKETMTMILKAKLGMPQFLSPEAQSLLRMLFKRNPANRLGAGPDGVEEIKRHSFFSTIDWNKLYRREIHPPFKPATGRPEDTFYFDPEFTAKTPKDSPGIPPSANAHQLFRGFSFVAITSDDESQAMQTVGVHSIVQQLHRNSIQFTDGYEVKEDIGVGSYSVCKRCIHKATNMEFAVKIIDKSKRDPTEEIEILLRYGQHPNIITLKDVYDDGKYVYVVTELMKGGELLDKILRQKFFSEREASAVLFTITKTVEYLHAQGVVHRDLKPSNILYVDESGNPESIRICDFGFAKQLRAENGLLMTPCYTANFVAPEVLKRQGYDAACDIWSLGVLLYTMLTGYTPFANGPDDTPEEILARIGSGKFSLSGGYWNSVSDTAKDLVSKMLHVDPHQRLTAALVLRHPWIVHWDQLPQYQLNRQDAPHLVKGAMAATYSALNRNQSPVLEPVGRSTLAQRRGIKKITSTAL
Sequence of MAPKAPK5 (Q8IW41 whole entry): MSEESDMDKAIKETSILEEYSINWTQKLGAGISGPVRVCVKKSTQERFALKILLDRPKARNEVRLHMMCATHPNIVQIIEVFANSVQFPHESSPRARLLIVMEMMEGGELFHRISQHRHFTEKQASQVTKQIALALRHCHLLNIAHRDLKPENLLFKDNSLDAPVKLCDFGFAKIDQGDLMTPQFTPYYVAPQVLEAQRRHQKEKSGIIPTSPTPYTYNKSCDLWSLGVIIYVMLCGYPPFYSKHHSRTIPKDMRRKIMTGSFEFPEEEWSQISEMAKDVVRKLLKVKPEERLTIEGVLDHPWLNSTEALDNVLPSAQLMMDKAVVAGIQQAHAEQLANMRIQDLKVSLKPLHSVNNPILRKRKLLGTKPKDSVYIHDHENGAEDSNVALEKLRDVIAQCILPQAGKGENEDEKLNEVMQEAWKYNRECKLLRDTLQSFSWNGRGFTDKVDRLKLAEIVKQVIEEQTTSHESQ

## C=CC(=O)Nc1cc(-n2c(=O)ccc3cnc4ccc(-n5cccn5)cc4c32)ccc1C [CHMFL-BTK-11]
PFPK5(P.falciparum)
  remaining binding at 1 µM: 100%
MAP4K2
  remaining binding at 1 µM: 98%
PDGFRB
  remaining binding at 1 µM: 100%
SLK
  remaining binding at 1 µM: 100%
RIOK1
  remaining binding at 1 µM: 66%
[1]
  remaining binding at 1 µM: 100%
[2]
  remaining binding at 1 µM: 100%
LOK
  remaining binding at 1 µM: 97%
CDK11
  remaining binding at 1 µM: 89%
PRKCI
  remaining binding at 1 µM: 69%
BMX
  remaining binding at 1 µM: 23%
ABL2
  remaining binding at 1 µM: 100%
MAPKAPK5
  remaining binding at 1 µM: 100%
[3]
  remaining binding at 1 µM: 89%
SNRK
  remaining binding at 1 µM: 94%
[4]
  remaining binding at 1 µM: 5.7%
p38-beta
  remaining binding at 1 µM: 100%
ANKK1
  remaining binding at 1 µM: 81%
CSF1R-autoinhibited
  remaining binding at 1 µM: 70%
DDR1
  remaining binding at 1 µM: 100%
PAK6
  remaining binding at 1 µM: 100%
MAP4K4
  remaining binding at 1 µM: 97%
PIM2
  remaining binding at 1 µM: 100%
INSR
  remaining binding at 1 µM: 82%
FES
  remaining binding at 1 µM: 90%
